Test results as given in PubChem BioAssay (NCI).
“And” between values parts separate entries of the source, which are not always exact repeats. Equal entries are not always repeated.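 All cell lines were grown in 96-well plates and treated with compound for 48 hours. GI50 is the concentration that inhibits growth by half. TGI denotes the concentration required for complete inhibition of growth.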 Starred links: 1 amine or outer side, 2 acyl side, 3 side chain; linkers in the order of their positions; H or OH if unused. Positions of bridges follow the written chain, without caps; N, C: chain ends. Non-standard residues stand in square brackets, D forms with d. Residues, ends and D or L forms follow the SMILES beside them. Chains are numbered I, II in the order given. Actinocin(9to1) = Cc1c2oc3c(C)ccc(C(=O)[*:1])c3nc-2c(C(=O)[*:2])c(N)c1=O; NMeY = CN[CH](Cc1ccc(O)cc1)C(=O)O; Sar = CNCC(=O)O

Assays:
Test in all cases: NCI tumour cell line growth inhibition, 48 h
[1] = test system: OVCAR-8 ovarian
[2] = test system: SK-MEL-2 melanoma
[3] = test system: M14 melanoma
[4] = test system: NCI-H460 lung
[5] = test system: OVCAR-4 ovarian
[6] = test system: ACHN renal
[7] = test system: PC-3 prostate
[8] = test system: HS 578T breast
[9] = test system: SF-268 CNS
[10] = test system: NCI-H522 lung

| SMILES | TGI [1] | TGI [2] | TGI [3] | TGI [4] | TGI [5] | TGI [6] | TGI [7] | TGI [8] | TGI [9] | TGI [10] | GI50 [3] | GI50 [4] | GI50 [7] |
| --- | --- | --- | --- | --- | --- | --- | --- | --- | --- | --- | --- | --- | --- |
| N#CC1C(=S)NC(c2ccccc2)=CC12CCCCC2 (stereo not given) | > 100 µM | 55.8 µM | 84.9 µM | > 100 µM | 85.5 µM | 72.3 µM | > 100 µM | > 100 µM | > 100 µM | 42.2 µM |  |  |  |
| O=C(Nc1ccccc1)c1cc(S(=O)(=O)NC2=NC(c3ccccc3)c3cc(Cl)ccc3N2)c(SSc2cc(Cl)c(C(=O)Nc3ccccc3)cc2S(=O)(=O)NC2=NC(c3ccccc3)c3cc(Cl)ccc3N2)cc1Cl (stereo not given) | > 100 µM | > 100 µM | > 100 µM | > 100 µM | > 100 µM | > 100 µM | > 100 µM | > 100 µM | > 100 µM | > 100 µM |  |  |  |
| Cc1n(Cc2ccccc2)c2c([n+]1C)C(=O)c1ccccc1C2=O | 0.826 µM | 0.388 µM | 0.282 µM | 0.5 µM | 0.812 µM | 11.4 µM | 0.999 µM | 2.14 µM | 0.143 µM | 0.135 µM |  |  |  |
| [N-]=[N+]=Nc1c([N+](=O)[O-])c(=O)n(-c2ccccc2)c2ccccc12 | 48.9 µM | 52.5 µM | 73.1 µM | > 100 µM | 49.4 µM | 85.5 µM | 83.9 µM | 72.1 µM | 59.6 µM | > 100 µM |  |  |  |
| CCO/C(O)=C(/C(=N)N1CCOCC1)C(=O)Nc1ccc(F)cc1 | > 100 µM | > 100 µM | > 100 µM | > 100 µM | > 100 µM | > 100 µM | > 100 µM | > 100 µM | > 100 µM | > 100 µM |  |  |  |
| CO/N=C(\C(=O)OC(=NC1CCCCC1)NC1CCCCC1)c1csc(NC(c2ccccc2)(c2ccccc2)c2ccccc2)n1 | > 10 µM | > 10 µM | > 10 µM | > 10 µM | > 10 µM | > 10 µM | > 10 µM | > 10 µM | > 10 µM | > 10 µM |  |  |  |
| NC(N)=NCCN1CC2CCC(CC2)C1 | > 100 µM | > 100 µM | > 100 µM | > 100 µM | > 100 µM | > 100 µM | > 100 µM | > 100 µM | > 100 µM | > 100 µM |  |  |  |
| COc1cc(OC)c2nc(C)c(CCCl)c(Cl)c2c1 | > 100 µM | > 100 µM | > 100 µM | > 100 µM | > 100 µM | > 100 µM | > 100 µM | > 100 µM | > 100 µM | > 100 µM |  |  |  |
| COc1cccc(C2c3cc4c(cc3OC(N3CCCCC3)C2C)OCO4)c1O (stereo not given) | > 36.5 µM | 42.5 µM | 22.6 µM | 24.4 µM | > 100 µM | 56.5 µM | > 79.8 µM | > 26.4 µM | 99.8 µM | 8.53 µM |  |  |  |
| Cc1c2oc3c(C)ccc(C(=O)NC4C(=O)NC(C(C)C)C(=O)N5CCCC5C(=O)N(C)CC(=O)N(C)C(Cc5ccc(O)cc5)C(=O)OC4C)c3nc-2c(C(=O)NC2C(=O)NC(C(C)C)C(=O)N3CCCC3C(=O)N(C)CC(=O)N(C)C(Cc3ccc(O)cc3)C(=O)OC2C)c(N)c1=O (stereo not given) (I: TVP[Sar][NMeY] / II: TVP[Sar][NMeY]; ester I:1-I:C, II:1-II:C; linker I:N-II:N via Actinocin(9to1); configuration not given here) | 0.612 µM | 0.111 µM and 0.0245 µM | > 0.793 µM and 0.229 µM | > 1 µM | > 0.301 µM | > 1 µM | > 1 µM | 0.0521 µM and 0.0624 µM | > 1 µM | 0.11 µM and 0.031 µM | 0.175 µM and 0.0513 µM | 0.0056 µM and 0.000964 µM | 0.0407 µM and 0.0115 µM |
| Cc1ccc(C2SCC(=O)N2c2ccc(-n3c(-c4ccccc4)nc4ccccc4c3=O)cc2)cc1 (stereo not given) | > 100 µM | 51.3 µM | 69.2 µM | 27.6 µM | > 100 µM | 86.4 µM | 55.4 µM | 77.9 µM | > 100 µM | 58.6 µM |  |  |  |
| C=CCc1cccc2cc(C(=O)NCc3ccccc3)c(=N)oc12 | > 100 µM | 31.5 µM | > 100 µM | > 100 µM | > 100 µM | > 100 µM | > 100 µM | 63.8 µM | > 100 µM | 44.2 µM |  |  |  |
| Cc1ccnc2[nH]c(-c3ccc4ccccc4c3)cc(=O)c12 | 14 µM | 28.2 µM | 23.2 µM | 7.34 µM | 4.45 µM | 13.6 µM | 6.06 µM | 5.6 µM | 39.4 µM | 3.42 µM |  | 1.05 µM | 1.38 µM |
| O=c1[nH]nnc2c1sc1ncccc12 | > 100 µM | > 100 µM | > 100 µM | > 100 µM | > 100 µM | > 100 µM | > 100 µM | > 100 µM | > 100 µM | > 100 µM |  |  |  |
| CN1C(=O)c2ccccc2OC12C=Cc1c(ccc3ccccc13)O2 (stereo not given) | 17.6 µM | 22 µM | 17.1 µM | 42.5 µM | > 52.7 µM | 10.2 µM | 16.8 µM | 33.1 µM | 31.4 µM | 6.27 µM |  |  |  |
| Cc1c(C)c2c(c(N)c1C#N)C(=O)N(NC(=O)c1ccccc1)C2=O | > 100 µM | > 100 µM | > 100 µM | > 100 µM | > 100 µM | > 100 µM | > 100 µM | > 100 µM | > 100 µM | > 100 µM |  |  |  |
| Cc1[nH]c(=O)nc2nc3ccc(Cl)cc3c(NCCNCCO)c12 | 21.6 µM | 28.3 µM | 25.8 µM | 25 µM | 26.2 µM | 27.4 µM | 27.4 µM | 31.8 µM | 27.9 µM | 12.9 µM |  |  |  |
| COc1cccc(C(=O)Oc2ccc(OS(=O)(=O)c3ccc(C)cc3)cc2)c1C#N | > 100 µM | > 100 µM | > 100 µM | > 100 µM | > 100 µM | > 100 µM | > 100 µM | > 100 µM | > 100 µM | > 100 µM |  |  |  |
| CC1CC(OP(=O)(OCc2ccccc2)OCc2ccccc2)[C@@H](OCc2ccccc2)C(OCc2ccccc2)C1OCc1ccccc1 (stereo not given in full) | > 100 µM | > 100 µM | > 100 µM | > 100 µM | > 100 µM | > 100 µM | > 100 µM | > 100 µM | > 100 µM | > 100 µM |  |  |  |
| CC1(C)OC(C(=O)Nc2cc3c4ccccc4ccc3c3ccccc23)C(C(=O)N2CCCCC2)O1 (stereo not given) | > 100 µM | > 100 µM | > 100 µM | 27.7 µM | > 100 µM | > 100 µM | > 100 µM | > 96.6 µM | > 100 µM | > 28.3 µM |  |  |  |
